Tests used:
[1] = tested on: murine model of collagen-induced arthritis; assay: Collagen-induced arthritis model (CIA model), study number 2, Example 12; format: in vivo, female DBA/1J mice; parameters: key to Terminal Individual Paw Score, Front right, group mean / Terminal Individual Paw Score, Front left, group mean / Terminal Individual Paw Score, Rear right, group mean / Terminal Individual Paw Score, Rear left, group mean: 0 = no arthritis, 4 = severe arthritis of entire paw; key to Arthritic Index (AI), group mean: sum of four paw scores, each 0 = none to 4 = severe; conditions: for Terminal Individual Paw Score, Front left, group mean / Terminal Individual Paw Score, Front right, group mean / Terminal Individual Paw Score, Rear left, group mean / Terminal Individual Paw Score, Rear right, group mean: day 42; for effect on diseased mouse weight / incidence of disease / reduction in disease severity: once daily subcutaneous 4 μg/mouse; for incidence of disease: starting one hour prior to disease induction; for reduction in disease severity: at the termination of the study; for Arthritic Index (AI), group mean: peptides 4 μg/mouse, methotrexate 1 mg/kg, subcutaneous
Procedure: The CIA model as described in an Example 9 is the “standard” animal model for evaluation of anti-arthritic activity based on immunization with bovine collagen to develop antibodies against bone and cartilage.
Here we present data on investigating in vivo effect of the HERV-Env59, SG#2, and SG#5 and SG#15 peptides. The aim was to determine anti-arthritic dosing paradigm in a murine model of collagen-induced arthritis. This study was carried out in female DBA/1J mice. The effect of the Env59 ISU peptide, SG#2, SG#5 or SG#15 peptide on disease development is compared with a methotrexate MTX (positive control) or saline treated control group.
Day 0: The mice were weighted and injected subcutaneously at the nape of the neck as in the table below (table 6):
(§1) An hour later, the mice were injected subcutaneously at the base of the tail with 50 μl of the collagen/CFA emulsion.
(§2) Mice were scored for signs of arthritis every Monday, Wednesday, and Friday during the next 41 days as follows: • Each paw receives a score • 0=no visible effects of arthritis • 1=edema and/or erythema of 1 digit • 2=edema and/or erythema of 2 digits • 3=edema and/or erythema of more than 2 digits • 4=severe arthritis of entire paw and digits
(§3) The Arthritic Index (AI) was calculated by the addition of individual paw scores.
(§4) Day 42 The mice were weighted and scored for signs of arthritis.

THP-1 or HT-1080 cells = assay: CellTiter-Blue Cell Viability Assay, toxicity profile of peptides; conditions: about 20 h exposure
Description: Here, we examined the cytotoxicity effect of peptides SG#1 to SG#17 (ID1031 to ID1047) on two human cell lines THP-1 or HT-1080 cells.
The CellTiter-Blue® Cell Viability Assay provides a homogenous, fluorometric method for estimating the number of viable cells present in multiwall plates. It uses the indicator dye resazurin to measure the metabolic capacity of cells—an indicator of cell viability. Viable cells retain the ability to reduce resazurin into resorufin, which is highly fluorescent.
The CellTiter-Blue® Reagent is a buffered solution containing highly purified resazurin. Resazurin is dark blue in color and has little intrinsic fluorescence. However, when it is reduced to resorufin, it becomes pink and highly fluorescent (579EX/584EM).
• 1. Set up 96-well assay plates containing cells in culture medium. For HT-1080, plate 1.6×10^4 cells per well on the Day 1 of the experiment. Cells are plated in 100 μl complete culture medium (DMEM) per well. • 2. On day 2, gently remove medium and add 50 μl of complete DMEM medium, add peptides and vehicle controls to appropriate wells so the final volume is 100 μl in each well. Supplement with complete DMEM where necessary. • 3. Culture cells for the desired test exposure period, about 20 h. • 4. On day 3, remove assay plates from 37° C. incubator and add 20 μl/well of CellTiter-Blue® Reagent. • 5. Shake for 10 seconds. • 6. Incubate using standard cell culture conditions for 4 hours. • 7. Shake plate for 10 seconds and record fluorescence at 560/590 nm
Toxicity profile for peptides SG#1 to SG#17 (ID1031 to ID1047). All peptides were tested at the dosage increment (10 nm, 30 nM, 100 nM, 1 μM, 10 μM, 30 μM, 100 μM and 300 μM).

[2] = tested on: murine model of collagen-induced arthritis; assay: Collagen-induced arthritis model (CIA model), Example 9; format: in vivo, female DBA/1J mice; parameters: key to terminal individual paw score, Front right, group mean / terminal individual paw score, Front left, group mean / terminal individual paw score, Rear right, group mean / terminal individual paw score, Rear left, group mean: paw score 0 = no arthritis to 4 = severe arthritis of entire paw; key to Arthritic Index (AI), group mean: sum of four paw scores, each 0 (no arthritis) to 4 (severe); max 16; conditions: for Arthritic Index (AI), group mean: peptide 4 μg/mouse, methotrexate 3 mg/kg, subcutaneous
Procedure: The CIA model is the “standard” animal model for evaluation of anti-arthritic activity based on immunization with bovine collagen to develop antibodies against bone and cartilage.
The aim was to determine anti-arthritic dosing paradigm in a murine model of collagen-induced arthritis. This study was carried out in female DBA/1J mice. The effect of the Env59 ISU peptides on disease development is compared with a methotrexate MTX (positive control) or saline treated control group.
Day 0: The mice were weighted and injected subcutaneously at the nape of the neck as in the table below (table 3):
as §1, §2, §3, §4

| Compound | Terminal Individual Paw Score, Front left, group mean [1] | Terminal Individual Paw Score, Front right, group mean [1] | Terminal Individual Paw Score, Rear left, group mean [1] | Terminal Individual Paw Score, Rear right, group mean [1] | effect on diseased mouse weight [1] | incidence of disease [1] [%] | reduction in disease severity [1] [%] | Arthritic Index (AI), group mean ([1]; study day 14) | Arthritic Index (AI), group mean ([1]; study day 21) | Arthritic Index (AI), group mean ([1]; study day 25) | Arthritic Index (AI), group mean ([1]; study day 27) | Arthritic Index (AI), group mean ([1]; study day 29) | Arthritic Index (AI), group mean ([1]; study day 32) | Arthritic Index (AI), group mean ([1]; study day 34) | Arthritic Index (AI), group mean ([1]; study day 36) | Arthritic Index (AI), group mean ([1]; study day 39) | Arthritic Index (AI), group mean ([1]; study day 41) | Arthritic Index (AI), group mean ([1]; study day 42) | Toxicity yes/no at the 300 μM conc. (THP-1 or HT-1080 cells) | further results |
| --- | --- | --- | --- | --- | --- | --- | --- | --- | --- | --- | --- | --- | --- | --- | --- | --- | --- | --- | --- | --- |
| LQNRRGLGLSILLNEECEEGPGPGP (Possibly HERV) [SG#2] | 0.4 | 0.4 | 0.1 | 0.5 | no effect | 30 | 90 | 0 | 0 | 0 | 0.4 | 0.4 | 0.9 | 0.9 | 0.9 | 0.9 | 1.0 | 1.4 | No | – |
| LQNRRGLDLSILLNEECGPGPGP (Possibly HERV) [SG#3] | – | – | – | – | – | – | – | – | – | – | – | – | – | – | – | – | – | – | No | – |
| LQNRRGLLQNRRGLGLSILLNEE (Possibly HERV) [SG#15] | 0.1 | 0 | 0.3 | 0 | no effect | 30 | 97 | 0 | 0 | 0 | 0.1 | 0.1 | 0.1 | 0.3 | 0.3 | 0.3 | 0.3 | 0.4 | No | – |
| LQNKRGLGLSILLNEECGPGPGP (Possibly HERV) [SG#8] | – | – | – | – | – | – | – | – | – | – | – | – | – | – | – | – | – | – | No | – |
| LQNKKGLGLSILLNEECGPGPGP (Possibly HERV) [SG#9] | – | – | – | – | – | – | – | – | – | – | – | – | – | – | – | – | – | – | No | – |
| LQNRRGLGLSILLNEECKKGPGPGP (Possibly HERV) [SG#1] | – | – | – | – | – | – | – | – | – | – | – | – | – | – | – | – | – | – | No | – |
| CN(Cc1cnc2nc(N)nc(N)c2n1)c1ccc(C(=O)N[C@@H](CCC(=O)O)C(=O)O)cc1 [Methotrexate, reference compound] | 0 | 0 | 0 | 0 | – | – | – | 0 | 0 | 0 | 0 | 0 | 0 | 0 | 0 | 0 | 0 | 0 | – | terminal individual paw score, Front left, group mean ([2]; day 42): 0; terminal individual paw score, Front right, group mean ([2]; day 42): 0; terminal individual paw score, Rear left, group mean ([2]; day 42): 0; terminal individual paw score, Rear right, group mean ([2]; day 42): 0; Arthritic Index (AI), group mean ([2]; study day 21): 0; Arthritic Index (AI), group mean ([2]; study day 22): 0; Arthritic Index (AI), group mean ([2]; study day 25): 0; Arthritic Index (AI), group mean ([2]; study day 27): 0; Arthritic Index (AI), group mean ([2]; study day 29): 0; Arthritic Index (AI), group mean ([2]; study day 32): 0; Arthritic Index (AI), group mean ([2]; study day 34): 0; Arthritic Index (AI), group mean ([2]; study day 36): 0; Arthritic Index (AI), group mean ([2]; study day 38): 0; Arthritic Index (AI), group mean ([2]; study day 41): 0; Arthritic Index (AI), group mean ([2]; study day 42): 0 |
| GLSILLNEECGPGPGP (Possibly HERV) [SG#5] | 1.3 | 1.1 | 0.3 | 1.0 | no effect | 80 | 70 | 0 | 0 | 0 | 0.0 | 0.9 | 1.1 | 1.3 | 2.1 | 3.3 | 3.5 | 3.6 | No | – |
| LQNRRGLGLSILLNEECGPGPGP [SG#17] (Possibly HERV) | – | – | – | – | – | – | – | – | – | – | – | – | – | – | – | – | – | – | No | – |
